Assays:
Aspergillus niger = assay: Antifungal activity against Aspergillus niger ATCC 9029 after 48 hrs; type: functional; conditions: ATCC 9029, 48 h
Trichophyton benhamiae [1] = assay: Antifungal activity against Trichophyton mentagrophytes C943 after 48 hrs; type: functional, Arthroderma benhamiae
Candida albicans [2] = assay: Antifungal activity against Candida albicans C128-2000 after 48 hrs; type: functional
Nakaseomyces glabratus = assay: Antifungal activity against Candida glabrata C115-2000 after 48 hrs; type: functional
Torulaspora delbrueckii = assay: Antifungal activity against Candida coliculosa C122-2000 after 48 hrs; type: functional
Aspergillus flavus = assay: Antifungal activity against Aspergillus flavus ATCC 9170 after 48 hrs; type: functional; conditions: ATCC 9170, 48 h
Cryptococcus neoformans [3] = assay: Antifungal activity against […] IM 961951 after 48 hrs; type: functional
Cryptococcus neoformans [4] = assay: Antifungal activity against […] IM 042074 after 48 hrs; type: functional
Nannizzia gypsea = assay: Antifungal activity against Microsporum gypseum C115 after 48 hrs; type: functional
Cryptococcus neoformans [5] = assay: Antifungal activity against […] IM 031706 after 48 hrs; type: functional
Candida albicans [6] = assay: Antifungal activity against Candida albicans C127-2000 after 48 hrs; type: functional
Cryptococcus neoformans [7] = assay: Antifungal activity against […] ATCC 32264 after 48 hrs; type: functional; conditions: ATCC 32264, 48 h
Aspergillus fumigatus = assay: Antifungal activity against Aspergillus fumigatus ATCC 26934 after 48 hrs; type: functional; conditions: ATCC 26934, 48 h
Cryptococcus neoformans [8] = assay: Antifungal activity against […] IM 00319 after 48 hrs; type: functional
Candida tropicalis = assay: Antifungal activity against Candida tropicalis C131-1997 after 48 hrs; type: functional
Saccharomyces cerevisiae = assay: Antifungal activity against Saccharomyces cerevisiae ATCC 9763 after 48 hrs; type: functional; conditions: ATCC 9763, 48 h
Cryptococcus neoformans [9] = assay: Antifungal activity against […] IM 983036 after 48 hrs; type: functional
Pichia kudriavzevii = assay: Antifungal activity against Candida krusei C117-2000 after 48 hrs; type: functional
Cryptococcus neoformans [10] = assay: Antifungal activity against […] IM 031631 after 48 hrs; type: functional; conditions: Cryptococcus neoformans, 48 h; for MFC: read-out: MFC
Candida albicans [11] = assay: Antifungal activity against Candida albicans C125-2000 after 48 hrs; type: functional
Clavispora lusitaniae = assay: Antifungal activity against Candida lusitaniae C131-2000 after 48 hrs; type: functional
Kluyveromyces marxianus = assay: Antifungal activity against Candida kefyr C123-2000 after 48 hrs; type: functional
Trichophyton benhamiae [12] = assay: Antifungal activity against Trichophyton mentagrophytes C108 after 48 hrs; type: functional, Arthroderma benhamiae
Cryptococcus neoformans [13] = assay: Antifungal activity against […] IM 972751 after 48 hrs; type: functional
Trichophyton benhamiae [14] = assay: Antifungal activity against Trichophyton mentagrophytes C539 after 48 hrs; type: functional, Arthroderma benhamiae
Trichophyton benhamiae [15] = assay: Antifungal activity against Trichophyton mentagrophytes ATCC 9972 after 48 hrs; type: functional, Arthroderma benhamiae; conditions: ATCC 9972, 48 h
Candida parapsilosis = assay: Antifungal activity against Candida parapsilosis C124-2000 after 48 hrs; type: functional; conditions: Lodderomyces parapsilosis
Candida albicans [16] = assay: Antifungal activity against Candida albicans C130-2000 after 48 hrs; type: functional
Cryptococcus neoformans [17] = assay: Antifungal activity against Candida neoformans IM 983040 after 48 hrs; type: functional
Trichophyton benhamiae [18] = assay: Antifungal activity against Trichophyton mentagrophytes C364 after 48 hrs; type: functional, Arthroderma benhamiae
Candida albicans [19] = assay: Antifungal activity against Candida albicans ATCC 10231 after 48 hrs; type: functional; conditions: ATCC 10231, 48 h
Cryptococcus neoformans [20] = assay: Antifungal activity against […] IM 972724 after 48 hrs; type: functional
Candida albicans [21] = assay: Antifungal activity against Candida albicans C129-2000 after 48 hrs; type: functional
Trichophyton benhamiae [22] = assay: Antifungal activity against Trichophyton mentagrophytes C738 after 48 hrs; type: functional, Arthroderma benhamiae
Trichophyton rubrum = assay: Antifungal activity against Trichophyton rubrum C113 after 48 hrs; type: functional
Cryptococcus neoformans [23] = assay: Antifungal activity against Cryptococcus neoformans ATCC 32264 after 48 hrs; type: functional; conditions: ATCC 32264, 48 h
Cryptococcus neoformans [24] = assay: Antifungal activity against […] IM 052470 after 48 hrs; type: functional
Candida albicans [25] = assay: Antifungal activity against Candida albicans C126-2000 after 48 hrs; type: functional

O=C1NC(=S)S/C1=C\c1ccc(C(F)(F)F)cc1
0.97 µg/mL: MIC (Trichophyton benhamiae [1]) | MIC (Trichophyton benhamiae [18])
31.2 µg/mL: MFC (Candida albicans [2]) | MIC (Torulaspora delbrueckii) | MIC80 (Torulaspora delbrueckii) | MFC (Cryptococcus neoformans [5]) | MFC (Candida albicans [6]) | MFC (Candida tropicalis) | MFC (Pichia kudriavzevii) | MIC (Candida albicans [11]) | MIC80 (Candida albicans [11]) | MIC (Clavispora lusitaniae) | MIC80 (Clavispora lusitaniae) | MIC (Candida parapsilosis) | MIC80 (Candida parapsilosis) | MFC (Candida albicans [21]) | MIC (Candida albicans [21]) | MIC80 (Candida albicans [21]) | MFC (Candida albicans [25])
7.8 µg/mL: MFC (Cryptococcus neoformans [3]) | MIC (Cryptococcus neoformans [3]) | MFC (Cryptococcus neoformans [4]) | MIC (Cryptococcus neoformans [4]) | MIC80 (Cryptococcus neoformans [4]) | MIC (Cryptococcus neoformans [5]) | MIC50 (Cryptococcus neoformans [5]) | MIC80 (Cryptococcus neoformans [5]) | MIC50 (Candida albicans [6]) | MFC (Cryptococcus neoformans [7]) | MFC (Cryptococcus neoformans [8]) | MIC (Cryptococcus neoformans [8]) | MIC50 (Candida tropicalis) | MFC (Cryptococcus neoformans [9]) | MIC (Cryptococcus neoformans [9]) | MIC80 (Cryptococcus neoformans [9]) | MIC50 (Pichia kudriavzevii) | MIC (Cryptococcus neoformans [10]) | MIC80 (Cryptococcus neoformans [10]) | MIC (Kluyveromyces marxianus) | MIC80 (Kluyveromyces marxianus) | MFC (Cryptococcus neoformans [13]) | MIC (Cryptococcus neoformans [13]) | MIC50 (Candida albicans [16]) | MIC (Cryptococcus neoformans [17]) | MIC80 (Cryptococcus neoformans [17]) | MFC (Cryptococcus neoformans [20]) | MIC (Cryptococcus neoformans [20]) | MIC80 (Cryptococcus neoformans [20]) | MIC (Cryptococcus neoformans [24]) | MIC80 (Cryptococcus neoformans [24])
15.6 µg/mL: MIC (Candida albicans [2]) | MIC50 (Candida albicans [2]) | MIC80 (Candida albicans [2]) | MFC (Nakaseomyces glabratus) | MIC50 (Torulaspora delbrueckii) | MIC (Nannizzia gypsea) | MIC (Candida albicans [6]) | MIC80 (Candida albicans [6]) | MIC (Candida tropicalis) | MIC80 (Candida tropicalis) | MIC (Saccharomyces cerevisiae) | MIC (Pichia kudriavzevii) | MIC80 (Pichia kudriavzevii) | MFC (Cryptococcus neoformans [10]) | MIC50 (Candida albicans [11]) | MIC50 (Clavispora lusitaniae) | MFC (Kluyveromyces marxianus) | MIC (Candida albicans [16]) | MIC80 (Candida albicans [16]) | MFC (Cryptococcus neoformans [17]) | MIC (Candida albicans [19]) | MIC50 (Candida albicans [21]) | MIC (Trichophyton rubrum) | MIC (Candida albicans [25]) | MIC50 (Candida albicans [25]) | MIC80 (Candida albicans [25])
62.5 µg/mL: MIC (Aspergillus niger) | MFC (Torulaspora delbrueckii) | MIC (Aspergillus flavus) | MFC (Candida albicans [11]) | MFC (Clavispora lusitaniae) | MFC (Candida parapsilosis) | MFC (Candida albicans [16])
12.5 µg/mL: MFC (Cryptococcus neoformans [24])
125 µg/mL: MIC (Aspergillus fumigatus)
3.9 µg/mL: MIC (Nakaseomyces glabratus) | MIC50 (Nakaseomyces glabratus) | MIC80 (Nakaseomyces glabratus) | MIC80 (Cryptococcus neoformans [3]) | MIC (Cryptococcus neoformans [7]) | MIC50 (Cryptococcus neoformans [7]) | MIC80 (Cryptococcus neoformans [7]) | MIC50 (Cryptococcus neoformans [8]) | MIC80 (Cryptococcus neoformans [8]) | MIC50 (Cryptococcus neoformans [10]) | MIC50 (Kluyveromyces marxianus) | MIC80 (Cryptococcus neoformans [13]) | MIC (Trichophyton benhamiae [15]) | MIC50 (Candida parapsilosis) | MIC (Cryptococcus neoformans [23])
1.95 µg/mL: MIC (Trichophyton benhamiae [12]) | MIC (Trichophyton benhamiae [14]) | MIC (Trichophyton benhamiae [22])
1.9 µg/mL: MIC50 (Cryptococcus neoformans [3]) | MIC50 (Cryptococcus neoformans [4]) | MIC50 (Cryptococcus neoformans [9]) | MIC50 (Cryptococcus neoformans [13]) | MIC50 (Cryptococcus neoformans [17]) | MIC50 (Cryptococcus neoformans [20]) | MIC50 (Cryptococcus neoformans [24])

O=C1NC(=S)S/C1=C\c1ccc(F)cc1
15.6 µg/mL: MIC80 (Candida albicans [2]) | MFC (Torulaspora delbrueckii) | MFC (Cryptococcus neoformans [3]) | MIC (Nannizzia gypsea) | MIC (Candida albicans [6]) | MIC80 (Candida albicans [6]) | MFC (Cryptococcus neoformans [8]) | MFC (Candida tropicalis) | MIC (Cryptococcus neoformans [9]) | MIC (Candida albicans [11]) | MFC (Clavispora lusitaniae) | MFC (Candida parapsilosis) | MIC (Candida albicans [16]) | MIC (Cryptococcus neoformans [17]) | MIC (Cryptococcus neoformans [20]) | MIC (Candida albicans [21]) | MIC (Candida albicans [25]) | MIC80 (Candida albicans [25])
51.6 µg/mL: MFC (Nakaseomyces glabratus)
1.9 µg/mL: MIC50 (Cryptococcus neoformans [3]) | MIC50 (Cryptococcus neoformans [5]) | MIC50 (Cryptococcus neoformans [8]) | MIC80 (Cryptococcus neoformans [8]) | MIC50 (Cryptococcus neoformans [10]) | MIC50 (Cryptococcus neoformans [13]) | MIC80 (Cryptococcus neoformans [13]) | MIC50 (Cryptococcus neoformans [17]) | MIC80 (Cryptococcus neoformans [17]) | MIC50 (Cryptococcus neoformans [24]) | MIC80 (Cryptococcus neoformans [24])
62.5 µg/mL: MFC (Candida albicans [2]) | MFC (Cryptococcus neoformans [9]) | MFC (Pichia kudriavzevii) | MFC (Cryptococcus neoformans [13])
3.9 µg/mL: MIC50 (Candida albicans [2]) | MIC50 (Nakaseomyces glabratus) | MIC80 (Nakaseomyces glabratus) | MIC50 (Torulaspora delbrueckii) | MIC80 (Torulaspora delbrueckii) | MIC50 (Cryptococcus neoformans [4]) | MIC80 (Cryptococcus neoformans [4]) | MIC80 (Cryptococcus neoformans [5]) | MIC50 (Cryptococcus neoformans [7]) | MIC50 (Candida tropicalis) | MIC50 (Pichia kudriavzevii) | MIC80 (Cryptococcus neoformans [10]) | MIC50 (Clavispora lusitaniae) | MIC80 (Clavispora lusitaniae) | MIC50 (Kluyveromyces marxianus) | MIC80 (Candida parapsilosis) | MIC50 (Candida albicans [16]) | MIC50 (Cryptococcus neoformans [20]) | MIC50 (Candida albicans [21]) | MIC50 (Candida albicans [25])
1.95 µg/mL: MIC (Trichophyton benhamiae [12]) | MIC (Trichophyton benhamiae [14]) | MIC (Trichophyton benhamiae [22])
32 µg/mL: MIC (Trichophyton rubrum)
31.2 µg/mL: MIC (Candida albicans [2]) | MFC (Cryptococcus neoformans [4]) | MFC (Cryptococcus neoformans [5]) | MFC (Candida albicans [6]) | MFC (Cryptococcus neoformans [7]) | MIC (Pichia kudriavzevii) | MFC (Cryptococcus neoformans [10]) | MFC (Candida albicans [11]) | MFC (Kluyveromyces marxianus) | MIC (Kluyveromyces marxianus) | MFC (Candida albicans [16]) | MFC (Cryptococcus neoformans [17]) | MFC (Cryptococcus neoformans [20]) | MFC (Candida albicans [21]) | MFC (Cryptococcus neoformans [24]) | MFC (Candida albicans [25])
250 µg/mL: MIC (Aspergillus niger) | MIC (Aspergillus flavus) | MIC (Aspergillus fumigatus)
0.97 µg/mL: MIC (Trichophyton benhamiae [1]) | MIC (Trichophyton benhamiae [18])
7.8 µg/mL: MIC (Nakaseomyces glabratus) | MIC (Torulaspora delbrueckii) | MIC (Cryptococcus neoformans [3]) | MIC80 (Cryptococcus neoformans [3]) | MIC (Cryptococcus neoformans [4]) | MIC (Cryptococcus neoformans [5]) | MIC50 (Candida albicans [6]) | MIC (Cryptococcus neoformans [7]) | MIC80 (Cryptococcus neoformans [7]) | MIC (Cryptococcus neoformans [8]) | MIC (Candida tropicalis) | MIC80 (Candida tropicalis) | MIC (Saccharomyces cerevisiae) | MIC50 (Cryptococcus neoformans [9]) | MIC80 (Cryptococcus neoformans [9]) | MIC80 (Pichia kudriavzevii) | MIC (Cryptococcus neoformans [10]) | MIC50 (Candida albicans [11]) | MIC80 (Candida albicans [11]) | MIC (Clavispora lusitaniae) | MIC80 (Kluyveromyces marxianus) | MIC (Cryptococcus neoformans [13]) | MIC (Trichophyton benhamiae [15]) | MIC (Candida parapsilosis) | MIC50 (Candida parapsilosis) | MIC80 (Candida albicans [16]) | MIC (Candida albicans [19]) | MIC80 (Cryptococcus neoformans [20]) | MIC80 (Candida albicans [21]) | MIC (Cryptococcus neoformans [23]) | MIC (Cryptococcus neoformans [24])

Source: ChEMBL document CHEMBL1144507, “Synthesis and antifungal activity of (Z)-5-arylidenerhodanines” (2007)
